Several values for one entry are separate records, joined by “and”; a condition that tells them apart may be missing. Equal values may be shown once. Inconclusive results and toxic doses are left out. No stated cut-off is given here; in the data, active means T/C of 150% or more; inactive means T/C below 125%.
Tested on: L1210 leukemia ip in BDF1 mice, survival T/C
Test: NCI In Vivo Anticancer Drug Screen. Data for tumor model L1210 Leukemia (intraperitoneal) in B6D2F1 (BDF1) mice
Settings: endpoint: mean survival time, higher = longer survival
How it was run: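 Value reflects the ratio of survival in compound-treated mice to survival in vehicle-treated controls, with both groups carrying the same transplanted tumor.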

[1] = dose: 50.0 mg/kg/injection, schedule: Q01DX001 (ip), vehicle: saline
[2] = dose: 100.0 mg/kg/injection, schedule: Q01DX009 (ip), vehicle: Klucel (hydroxypropylcellulose) (HPC)
[3] = dose: 100.0 mg/kg/injection, schedule: Q04DX003 (ip), vehicle: Klucel (hydroxypropylcellulose) (HPC)
[4] = dose: 200.0 mg/kg/injection, schedule: Q01DX009 (ip), vehicle: Klucel (hydroxypropylcellulose) (HPC)
[5] = dose: 200.0 mg/kg/injection, schedule: Q04DX003 (ip), vehicle: Klucel (hydroxypropylcellulose) (HPC)
[6] = dose: 400.0 mg/kg/injection, schedule: Q01DX009 (ip), vehicle: Klucel (hydroxypropylcellulose) (HPC)
[7] = dose: 400.0 mg/kg/injection, schedule: Q04DX003 (ip), vehicle: Klucel (hydroxypropylcellulose) (HPC)
[8] = dose: 100.0 mg/kg/injection, schedule: Q01DX001 (ip), vehicle: saline
[9] = dose: 200.0 mg/kg/injection, schedule: Q01DX001 (ip), vehicle: saline
[10] = dose: 400.0 mg/kg/injection, schedule: Q01DX001 (ip), vehicle: saline
[11] = dose: 100.0 mg/kg/injection, schedule: Q04DX003 (ip), vehicle: saline
[12] = dose: 200.0 mg/kg/injection, schedule: Q04DX003 (ip), vehicle: saline

Measured: T/C

NC(N)=N/N=C/c1ccc(Cl)c([N+](=O)[O-])c1
inactive: dose: 6.0 mg/kg/injection, schedule: Q01DX Z (oral), vehicle: methylcellulose (MC) 93 % of control | dose: 15.0 mg/kg/injection, schedule: Q01DX Z (oral), vehicle: methylcellulose (MC) 115 % of control | dose: 30.0 mg/kg/injection, schedule: Q01DX Z (oral), vehicle: methylcellulose (MC) 109 % of control | dose: 120.0 mg/kg/injection, schedule: Q01DX Z (oral), vehicle: methylcellulose (MC) 96 % of control

CC[N+](CC)(CC)CCCNC(c1ccccc1)C(Cl)(Cl)Cl (centres undefined)
inactive: dose: 12.5 mg/kg/injection, schedule: Q01DX001 (ip), vehicle: saline 95 % of control | dose: 25.0 mg/kg/injection, schedule: Q01DX001 (ip), vehicle: saline 97 % of control | [1] 95 % of control

O=C(NCCCl)Oc1cccc2c1CCCC2
inactive: [2] 87 % of control | [3] 103 % of control | [4] 97 % of control | [5] 100 % of control | [6] 100 % of control | [7] 100 % of control

C1CC2CN(CCCN3CCOCC3)C(C1)O2 (centres undefined)
inactive: [1] 95 % of control | [8] 101 % of control | [9] 101 % of control | [10] 97 % of control

CC1(C)C(=NO)C(C)(C)C1=NO
inactive: dose: 12.5 mg/kg/injection, schedule: Q01DX009 (ip), vehicle: Klucel (hydroxypropylcellulose) (HPC) 105 % of control | dose: 12.5 mg/kg/injection, schedule: Q04DX003 (ip), vehicle: Klucel (hydroxypropylcellulose) (HPC) 108 % of control | dose: 25.0 mg/kg/injection, schedule: Q01DX009 (ip), vehicle: Klucel (hydroxypropylcellulose) (HPC) 106 % of control | dose: 50.0 mg/kg/injection, schedule: Q04DX003 (ip), vehicle: Klucel (hydroxypropylcellulose) (HPC) 104 % of control

CC1([N+](=O)[O-])COP(=O)(OP2(=O)OCC(C)([N+](=O)[O-])CO2)OC1 (centres undefined)
inactive: dose: 100.0 mg/kg/injection, schedule: Q01DX001 (ip), vehicle: carboxymethylcellulose (CMC) 108 % of control | dose: 200.0 mg/kg/injection, schedule: Q01DX001 (ip), vehicle: carboxymethylcellulose (CMC) 101 % of control | dose: 400.0 mg/kg/injection, schedule: Q01DX001 (ip), vehicle: carboxymethylcellulose (CMC) 103 % of control

O=CNNC(=O)c1cnccn1
inactive: dose: 100.0 mg/kg/injection, schedule: Q01DX009 (ip), vehicle: saline 104 % of control | [11] 103 % of control | dose: 177.0 mg/kg/injection, schedule: Q01DX009 (ip), vehicle: saline 117 % of control | dose: 200.0 mg/kg/injection, schedule: Q01DX009 (ip), vehicle: saline 115 % of control | [12] 97 % of control | dose: 266.0 mg/kg/injection, schedule: Q01DX009 (ip), vehicle: saline 114 % of control | dose: 400.0 mg/kg/injection, schedule: Q04DX003 (ip), vehicle: saline 120 % of control

CCOC(=O)CC1CCC/C1=N/O (centres undefined)
inactive: dose: 75.0 mg/kg/injection, schedule: Q01DX009 (sc), vehicle: olive oil, sesame oil, peanut oil 98 % of control | dose: 150.0 mg/kg/injection, schedule: Q01DX009 (sc), vehicle: olive oil, sesame oil, peanut oil 94 % of control | dose: 300.0 mg/kg/injection, schedule: Q01DX009 (sc), vehicle: olive oil, sesame oil, peanut oil 100 % of control

CCCN(C(=O)c1cccc([N+](=O)[O-])c1)C(c1ccco1)P(=O)(c1ccccc1)c1ccccc1 (centres undefined)
inactive: dose: 50.0 mg/kg/injection, schedule: Q01DX001 (ip), vehicle: saline with Tween-80 101 % of control | dose: 100.0 mg/kg/injection, schedule: Q01DX001 (ip), vehicle: saline with Tween-80 101 % of control | dose: 100.0 mg/kg/injection, schedule: Q01DX009 (ip), vehicle: saline with Tween-80 100 % of control and 90 % of control | dose: 100.0 mg/kg/injection, schedule: Q04DX002 (ip), vehicle: saline with Tween-80 98 % of control | dose: 200.0 mg/kg/injection, schedule: Q01DX001 (ip), vehicle: saline with Tween-80 106 % of control | dose: 200.0 mg/kg/injection, schedule: Q01DX009 (ip), vehicle: saline with Tween-80 87 % of control | dose: 200.0 mg/kg/injection, schedule: Q04DX002 (ip), vehicle: saline with Tween-80 102 % of control | dose: 400.0 mg/kg/injection, schedule: Q04DX002 (ip), vehicle: saline with Tween-80 93 % of control and 88 % of control

O=C1CCCC1C(=O)Nc1cccc2ccccc12 (centres undefined)
inactive: [1] 97 % of control | [8] 103 % of control | [9] 97 % of control | [10] 97 % of control

O=C(O)CCCC1CCc2ccccc2C1 (centres undefined)
inactive: dose: 100.0 mg/kg/injection, schedule: Q01DX001 (ip), vehicle: Klucel (hydroxypropylcellulose) (HPC) 104 % of control | dose: 200.0 mg/kg/injection, schedule: Q01DX001 (ip), vehicle: Klucel (hydroxypropylcellulose) (HPC) 102 % of control | dose: 400.0 mg/kg/injection, schedule: Q01DX001 (ip), vehicle: Klucel (hydroxypropylcellulose) (HPC) 103 % of control

Cc1ccc(OCCOc2ccc(NC(=O)CC(=O)c3cccc([N+](=O)[O-])c3)cc2)cc1
inactive: [2] 100 % of control | [3] 95 % of control | [4] 103 % of control | [5] 98 % of control | [6] 97 % of control | [7] 97 % of control

COC1OC2COC(c3ccccc3)OC2C(N=[N+]=[N-])C1O (centres undefined)
inactive: dose: 100.0 mg/kg/injection, schedule: Q01DX001 (ip), vehicle: gum acacia 100 % of control | dose: 200.0 mg/kg/injection, schedule: Q01DX001 (ip), vehicle: gum acacia 97 % of control | dose: 400.0 mg/kg/injection, schedule: Q01DX001 (ip), vehicle: gum acacia 92 % of control

COc1ccc(/C=C(\CCCOC(C)=O)[N+](=O)[O-])cc1
inactive: [8] 100 % of control | [9] 111 % of control | [10] 113 % of control

COc1ccccc1C(=O)NS(=O)(=O)c1ccc(Cl)cc1
inactive: dose: 100.0 mg/kg/injection, schedule: Q04DX003 (ip), vehicle: acetone 113 % of control | dose: 200.0 mg/kg/injection, schedule: Q04DX003 (ip), vehicle: acetone 101 % of control | dose: 400.0 mg/kg/injection, schedule: Q04DX003 (ip), vehicle: acetone 96 % of control

Cc1cccc2sc(=S)[nH]c12
inactive: dose: 37.5 mg/kg/injection, schedule: Q04DX003 (ip), vehicle: Klucel (hydroxypropylcellulose) (HPC) 107 % of control | dose: 75.0 mg/kg/injection, schedule: Q01DX009 (ip), vehicle: Klucel (hydroxypropylcellulose) (HPC) 92 % of control | dose: 75.0 mg/kg/injection, schedule: Q04DX003 (ip), vehicle: Klucel (hydroxypropylcellulose) (HPC) 101 % of control | dose: 150.0 mg/kg/injection, schedule: Q01DX009 (ip), vehicle: Klucel (hydroxypropylcellulose) (HPC) 92 % of control | dose: 150.0 mg/kg/injection, schedule: Q04DX003 (ip), vehicle: Klucel (hydroxypropylcellulose) (HPC) 93 % of control | dose: 300.0 mg/kg/injection, schedule: Q01DX009 (ip), vehicle: Klucel (hydroxypropylcellulose) (HPC) 93 % of control | dose: 300.0 mg/kg/injection, schedule: Q04DX003 (ip), vehicle: Klucel (hydroxypropylcellulose) (HPC) 95 % of control

CC1C(=O)CC(=O)C1=O (centres undefined)
inactive: dose: 50.0 mg/kg/injection, schedule: Q01DX009 (ip), vehicle: saline sonified 104 % of control | dose: 100.0 mg/kg/injection, schedule: Q01DX009 (ip), vehicle: saline sonified 117 % of control | [11] 100 % of control | dose: 200.0 mg/kg/injection, schedule: Q01DX009 (ip), vehicle: saline sonified 104 % of control | [12] 100 % of control

O=C(O)C(Cl)C(Cl)c1ccccc1 (centres undefined)
inactive: dose: 75.0 mg/kg/injection, schedule: Q01DX001 (ip), vehicle: saline 98 % of control | dose: 150.0 mg/kg/injection, schedule: Q01DX001 (ip), vehicle: saline 98 % of control | dose: 300.0 mg/kg/injection, schedule: Q01DX001 (ip), vehicle: saline 101 % of control

Cc1cc(C)n(CO)n1
inactive: [2] 107 % of control | [3] 100 % of control | [4] 108 % of control | [5] 110 % of control | [7] 112 % of control

From PubChem BioAssay AID248 (DTP/NCI, 2004)
